From patent publication US6387397B1, “Polymerized liposomes targeted to M cells and useful for oral or mucosal drug delivery” (Massachusetts Institute of Technology, priority 1997, dated 2002)

Experiment: In vivo oral insulin delivery; blood glucose level
Design: species or system Balb/C mice
Details: mice, single oral dose, 1 to 3.5 hours
Procedure: Balb/C mice of female sex were fasted for 12 hours before experiment. Each mouse wag savaged 200 μL of each preparation as described in Table 9.3. Food was restored immediately after administration. Blood samples for glucose determination was drawn from mouse tail vein under methoxyflurane anesthesia. Samples were drawn right before the administration (0 hour), as well as at 1, 2, 3 and 3.5 hours post administration of each preparation. Blood glucose level was measured using a One Touch® Profile Diabetes Tracking system (Lifescan, Milpitas, Calif.) with One Touch® Test strips, by applying blood to form a round drop which completely covered the test spot on the test strip. Readings (in mg/dL) were obtained from the meter indicating the blood glucose level detected.
Blood glucose level at zero hour was taken at 100 percent. Blood glucose levels after the oral administration were normalized by the level at zero hour, and the results were plotted in FIG. 9. […] This was due to the degradation of the unprotected peptide in the gastrointestinal tract by the digestive enzymes. […] This is consistent with the fact that unpolymerized liposomes are not stable in the gastrointestinal tract, where they are dissolved by the biological detergents. The dissolution results in the exposure of liposomal contents and therefore the loss of liposome protective functions. […]

## insulin in solution: human insulin (regular) administered orally in solution
  change in blood glucose level after oral administration: did not result in any significant change
